The record followed here is US4683221A, “Lymphocyte-activating polypeptides” (Scripps Clinic and Research Foundation, priority 1986, dated 1987).

Format in all cases: cell-based
One experiment relates to mouse spleen cells. Put plainly: Polyclonal antibody response assay (Ig secretion measured by ELISA). The following applies: C57BL/6 spleen cells, 5 days; equimolar amounts of polypeptide, 1.5 mg/ml of p23 as standard.
For experiment [1], the system named is human plastic-adherent monocytes. Put plainly: Prostaglandin E secretion (radioimmune assay). The settings on record: 25 ug/ml of p23 or an equimolar amount of another polypeptide, 24 hours; initial data. The protocol:
(§1) The cell lines used in these studies were: (1) murine plastic-adherent macrophages; (2) human plastic-adherent monocytes; and (3) the murine macrophage-like cell line denominated P388.D1 [Snyderman et al., J. Immunol., 119, 2060 (1977)]. […] Thereafter, the cell culture supernatant was assayed for the presence of a prostaglandin E using a commercially available radioimmune assay (Seragen).

Experiment [2] deals with murine macrophage-like cell line denominated P388.D1. As to the kind of experiment: Prostaglandin E secretion (radioimmune assay). The settings on record: 25 ug/ml of p23 or an equimolar amount of another polypeptide, 24 hours; initial data. The protocol:
as §1

Experiment [3] has as its system murine plastic-adherent macrophages. Put plainly: Prostaglandin E secretion (radioimmune assay). The settings on record: 25 ug/ml of p23 or an equimolar amount of another polypeptide, 24 hours; initial data. The procedure:
as §1

Ends that are not written are not given here.

Text for mouse spleen cells: This assay measures the activity of a polypeptide in potentiating an in vitro polyclonal antibody response using mouse spleen cells.
For the generation of immunoglobulin (Ig) secretion response, spleen cells from inbred male 8-15 week old C57BL/6 mice (The Jackson Laboratory, Bar Harbor, ME) were suspended in RPMI 1640 medium (M.A. Bioproducts, Walkersville, MD) supplemented with 2 millimolar (mM) L-glutamine, one percent BME vitamins (GIBCO, Grand Island, NY), 5×10^-5 molar (M) 2-mercaptoethanol, 7.5 percent fetal calf serum (FCS;GIBCO), and 0.001 percent gentamicin (Schering Corp., Kenilworth, NJ). Cells (6×10^5) in 0.2 milliliters (ml) of the supplemented medium were added to flat-bottomed microtiter plate wells (No. 3596: Costar, Cambridge, MA). Cultures were established in triplicate, and a polypeptide-containing composition was added in a volume of 50 microliters per well (ul/well).
To establish comparison between polypeptides of different lengths, equimolar amounts of polypeptide were used, with 1.5 milligrams per milliter (mg/ml) of the 23-residue polypeptide corresponding in sequence to positions 335-357 of the human IgGl myeloma protein as standard. […] Supernatants from triplicate cell culture wells were harvested, pooled, centrifuged to remove cells and stored at -20° C. Concentrations of Ig in the supernatants were determined by the ELISA assay described hereinbelow.
The ELISA utilized to measure polyclonal activation was a so-called "sandwich" assay in which the assayed entity, mouse Ig molecules, are bound to solid phase-bound anti-mouse Ig antibodies and then bound by indicator (alkaline phosphatase)-linked anti-mouse Ig antibodies.
(B) 100 Microliters of various dilutions of either the Ig standard or culture supernatants were then admixed in PBS-Tween. […]
Each well then received 100 ul of 1 mg p-nitrophenyl phosphate (Sigma Chemical Co., St. Louis, MO) in 0.05 M carbonate, pH 9.8. The reaction was stopped with 50 ml of 0.3 N NaOH, and the light absorbance at 410 nanometers (nm) was measured by using a Dynatech model MR600 ELISA reader. […]

On to YTLPPSREE [I-51(b)], for which, in the experiment on mouse spleen cells, the “Ig Found (amount of polyclonal Ig molecules found in the assay)” value (“Ig Found” below) amounted to 10.7 µg/mL. For the same substance, the “secretion of a prostaglandin E into the culture medium” value (from here on “secretion”) in experiment [1], in experiment [2] and in experiment [3] was “incapable of inducing” throughout.

Regarding “LPPSREE [I-51(a), Leu-Pro-Pro-Ser-Arg-Glu-Glu]”, the “Ig Found” value in the experiment on mouse spleen cells is 10.2 µg/mL. The “secretion” value in experiment [1], in experiment [2] and in experiment [3] was “incapable of inducing” each time.

Consider QVYTLPPSREE [I-51(c)], for which the “Ig Found” value in the experiment with mouse spleen cells is 11.7 µg/mL. Further, the “secretion” value in experiment [1], in experiment [2] and in experiment [3] was “incapable of inducing” in each case.
